# Results published in patent US20250376480A1, “COMPOUND FOR LOSING WEIGHT AND IMPROVING GUT MICROBIOTA COMPOSITION AND COMPOSITION THEREOF” (SUNWAY BIOTECH CO., LTD., priority 2024, published 2025).
# Marks after values point to notes of the source that are not given here.
# Tests used:
# Format in all cases: in vivo, rat
# [1] = system: gut microbiota of high-fat diet rats; assay: Gut microbiota fecal analysis (full-length 16S sequencing) of high-fat diet rats
# Description: About 0.3 g of fresh feces was collected into 1.5 mL of eppendorf before fasting for sacrifice, sealed with parafilm, stored at −80° C. for analysis, and sent to BioTools (New Taipei, Taiwan) for analysis.
# Total genomic DNA (QIAamp PowerFecal DNA, Qiagen) was extracted from the samples. The DNA concentration was determined by Qubit 4.0 fluorometer (Thermo Scientific) and adjusted to 1 ng/μL. The full-length 16S gene (V1-V9 region) was amplified by 16S gene-specific primers with barcodes (Forward primer 1): 5′ Phos/GCATC-16-base barcode-Sequence ID Number 11, Reverse primer 1: 5′Phos/GCATC-16-base barcode—Sequence ID Number 12). PCR reactions were performed using KAPA HiFi HotStart ReadyMix (Roche): at 95° C. for 3 min. and 20-27 cycles (Sample Dependency): at 95° C. for 30 sec., at 57° C. for 30 sec., at 72° C. for 60 sec; at 72° C. for 5 min., and finally stored at 4° C. for future use. PCR products were monitored on 1% agarose gels. Samples of approximately 1500 bp bright bands were selected and purified by using AMPure PB Beads for SMRTbell library preparation.
# SMRTbell libraries were prepared based on full-length 16S gene amplifications with barcoded primers used in the Multiplex SMRTbell Library Preparation and Sequencing Program (Pacbio). Sequencing was performed in circular consensus sequencing (CCS) mode on a PacBio Sequel Ile instrument, generating HiFi read with a Phred Scale=30. The DNA to be tested will be sequenced iteratively. By comparing the results of the reverse sequencing, sequencing errors will be corrected, ultimately achieving a high accuracy of >99.9% (QV30).
# Information Analysis (Sequential data processing/denoising and species annotation) The sample data from the downstream data were sorted out according to the Barcode sequence and PCR amplification primer sequences. After the removal of the barcodes and primer sequences, the data were imported into QIIME2 (v2019.7.0; https://qiime2.org/) and all the sequences of the samples were saved into one corresponding object Artifacts. QIIME2 cutadapt was used to remove the amplicon variant primers (forward primer 2: Sequence ID Number 13; reverse primer 2: Sequence ID Number 14), and the sequence with the primers removed will be used as QIIME2 DADA2. Input Reads.
# The denoising analysis began with the filtering of sequences, setting each sequence to be cropped to a specified length (forward reads: 280 bp; reverse reads: 220 bp) and setting the MaxEE (forward reads: 2; reverse reads: 2) parameter as the maximum number of expected error bases allowed for the sequence. This was followed by denoising, the core algorithm of DADA2 utilizing the information of sequence abundance, quality score, and relationships between sequences to correct the […] of sequencing errors and to infer the real sequences. Splicing was performed after denoising each end of the sequence (minimum overlap length 20 bp; overlap region was not allowed to be mismatched). Finally, the spliced sequences are subjected to chimera removal by comparing the sequences with higher abundance in the sample. If a sequence with low abundance is similar to several sequences, it can be recognized as a chimera and removed from the sample. Sequences after denoising analysis were used as representative sequences of Amplicon Sequence Variants (ASVs) and can be obtained from the ASV table for subsequent species annotation. The QIIME2 feature-classifier (v2019.7.0; https://qiime2.org/) was used to select machine learning-based classification methods and to train naïve bayes classifiers for different databases and specific variability regions. The taxonomic annotation of ASVs represented by this classifier yields taxonomic information and the composition of the microbial phyla of each sample at each classification level including kingdom, phylum, class, order, family, genus, and species.
# Welch's t-test was analyzed by STAMP (v2.1.3), and the intergroup species differences were plotted as bar charts. […]
# [2] = system: obesity rats induced by high-fat feed; assay: Serum biochemical analysis (TC, TG) of high-fat diet rats
# Description: (§1) The experimental rats were divided into groups, and the obesity rats were induced by high-fat feed as follows (Please refer to Table 1). • i. NOR Group: Normal animal group. • ii. HF Group: High-fat control group including obesity rats induced by high-fat feed. • iii. RL Group: Obesity rats induced by high-fat feed and tube-fed daily with red yeast rice powder, equivalent to 0.5 g of red yeast rice containing 1.5 mg of Monascinol (compound having the structure of Formula (I)) per day consumed by an adult of 60 kg. • iv. RH Group: Obesity rats induced by high-fat feed and tube-fed red yeast rice powder daily, equivalent to 2 g of red yeast rice containing 6 mg of Monascinol (compound having the structure of Formula (I)) per day consumed by an adult of 60 kg. • V. Msol Group: Obesity rats induced by high-fat feed and tube-fed Monascinol (compound having the structure of Formula (I)) powder daily, equivalent to 3 mg of Monascinol (compound having the structure of Formula (I)) powder per day consumed by an adult of 60 kg.
# (§2) (4) Test Substance Feeding Method: The test substance was administered orally by tube feeding, and the concentration of the test substance was adjusted by using reverse osmosis water. 2.0 mL of sterile plastic syringes with stainless steel feeding pins were used to feed each group of test substance daily. Stainless steel feeding needles were soaked in 70% alcohol solution and rinsed with sterile distilled water several times before use. Each group of test animals was administered the test substance once a day for 8 weeks.
# (5) Sacrificial Blood Sampling: At the 8th week, the rats fasted for 12-14 hours before blood sampling. […] Blood samples were centrifuged with the conditions of 4° C. and 3,000×g for 15 min.
# (§3) The animals fasted for 16 hours before sacrifice, and carbon dioxide was used for asphyxiation during sacrifice. After making sure that there was no heartbeat, blood was drawn and organs were collected. […] After blood collection, the needle was slowly withdrawn from the blood vessel and the blood was placed into a 2 mL eppendorf tube and centrifuged at 10,000×g for 10 min. The upper serum layer was separated into eppendorf tubes and stored in a −20° C. freezer for future analysis.
# The test was performed using a biochemical autoanalyzer (Model No.: Beckman-700, purchased from Fullerton, California, USA). The items measured were Total Cholesterol (TC), and Triglyceride (TG).
# [3] = system: obesity rats induced by high-fat feed; assay: Body fat mass and body fat rate (perirenal and epididymal fat) of high-fat diet rats
# Description: (§4) Forty male rats of 8-week-old Sprague-Dawley (SD) strain were purchased from BioLASCO (Taipei, Taiwan) for the experiment. The growing environment was one with constant indoor temperature (25±1° C.), relative humidity of 60%, and 12 hours of cyclic light (light time from 8:00 to 20:00). The rats were acclimatized for four days before the formal experiment, then reared in 5 groups of 8 rats each for 8 weeks and were fed in an ad libitum feeding manner, and their body weight, food intake and water intake were measured at regular intervals during the experimental period.
# as §1, §2
# At the time of sacrifice, fatty tissues surrounding the kidneys and the epididymis (perirenal and epididymal fatty tissues) of the experimental animals were removed, and the their weights were measured and recorded. The body fat rate was calculated as follows: Body fat efficiency=(fat weight/body weight)×100%
# [4] = system: obesity rats induced by high-fat feed; assay: Liver lipid extraction and determination (TC, TG)
# Description: as §1, §2
# (§5) 0.1 g of liver tissue or fecal powder was weighed and 1 mL of chloroform:methanol (2:1, v/v volume ratio) was added, and homogenized with a tissue homogenizer and centrifuged to obtain the supernatant. The supernatant was then air-dried to remove the solvent, and the sample was dissolved by adding dimethyl sulfoxide (DMSO), and the extracts were kept at −20° C. The TC concentration was analyzed using a commercially available biochemical reagent (Model No. BXC 0261, Fortress), and the TG concentration was analyzed using a commercially available biochemical reagent (Model No. BXC 0271, Fortress), as per the kit instruction manual.
# [5] = system: obesity rats induced by high-fat feed; assay: Fecal lipid extraction and determination (TC, TG)
# Description: as §1, §2, §5
# [6] = system: obesity rats induced by high-fat feed; assay: Body weight change of obesity rats induced by high-fat feed
# Description: as §4
# The feeding dosage was calculated according to the method of “Estimating the maximum safe starting dose in initial clinical trials for therapeutics in adult healthy volunteers” published by the U.S. Food and Drug Administration in 2005. Provided that an adult of 60 kg was used as the base, the principle of dosage conversion is 6.2 times of the recommended daily intake of mg/kg bw/day for human as the recommended daily intake of mg/kg bw/day for rat, and the rat group is configured and fed with the dosage as shown in Table 1. The formulae are as follows: Dose intake per kilogram of body weight in rats=Recommended intake in humans÷Body weight 60 kg×6.2, and thus the daily dose intake per kilogram of body weight in rats can be calculated.
# as §1
# (4) Test Substance Feeding Method: The test substance was administered orally by tube feeding, and the concentration of the test substance was adjusted by using reverse osmosis water. 2.0 mL of sterile plastic syringes with stainless steel feeding pins were used to feed each group of test substance daily. […]
# The body weight of rats was measured weekly and the changes in body weight of each group were compared at the end of the experiment.
# [7] = system: obesity rats induced by high-fat feed; assay: Liver weight and liver/body weight of high-fat diet rats
# Description: as §4, §1, §2, §3
# [8] = FIGS. 9A-9D, high-fat diet rats, red yeast rice 0.5 and 2 g/day, Monascinol 3 mg/day
# [9] = order level, FIG. 7C, high-fat diet rats, red yeast rice 0.5 and 2 g/day, Monascinol 3 mg/day
# [10] = phylum level, FIG. 7A, high-fat diet rats, red yeast rice 0.5 and 2 g/day, Monascinol 3 mg/day
# [11] = Msol: Monascinol 0.31 mg/kg BW/day (adult 3 mg/day), tube-fed 8 weeks, high-fat diet SD rats, mean±SD
# [12] = p<0.05, 8 weeks, RL 0.5 g/day, RH 2 g/day, Msol 3 mg/day (adult equivalent)
# [13] = 8 weeks, RL 0.5 g/day, RH 2 g/day, Msol 3 mg/day (adult equivalent)
# [14] = vs HF group, 8 weeks, RL 0.5 g/day, RH 2 g/day, Msol 3 mg/day (adult equivalent)
compound,measurement,setting,value
"C/C=C/C1=CC2=C(CO1)C(=O)C1(C)OC(=O)C(C(O)CCCCC)C1C2 (stereo not drawn) [Msol, Monascinol]",F/B ratio (abundance ratio of Firmicutes to Bacteroidetes),"[1]; FIG. 7A, high-fat diet rats, red yeast rice 0.5 and 2 g/day, Monascinol 3 mg/day",decrease
same,content of B. thetaiotaomicron in the intestines,[1]; [8],most significant
same,intestinal abundance of Dubosiella newyorkensis,[1]; [8],increase
same,bacterial abundance of Bifidobacteriales in the intestine,[1]; [9],increased
same,intestinal abundance of Verrucomicrobiales,[1]; [9],increased
same,intestinal abundance of Eubacteriales,"[1]; order level, FIG. 8, HF group 50.14%, NOR 35.07%, MSol: Monascinol adult 3 mg/day, 8 weeks, high-fat diet rats",43.21%
same,abundance of Bacteroidetes,[1]; [10],increase
same,abundance of Firmicutes,[1]; [10],decrease
same,abundance of A. muciniphila,"[1]; species level, FIG. 7F, high-fat diet-induced obesity rats, red yeast rice 0.5 and 2 g/day, Monascinol 3 mg/day",increased
same,TC in serum,[2]; [11],65.0 ± 10.4^b mg/dL
same,TG in serum,[2]; [11],61.7 ± 10.7^a mg/dL
same,serum TC concentration compared with HF group,[2]; [12],reduced
same,serum TG concentration compared with HF group,"[2]; p<0.05, 8 weeks, red yeast rice at all doses (0.5 and 2 g/day), Msol 3 mg/day (adult equivalent)",significant reduction effect
same,Fat/body weight,[3]; [11],3.35 ± 0.55^b %
same,body fat mass compared with HF group,[3]; [12],significantly reduced
same,body fat percentage compared with HF group,[3]; [12],significantly reduced
same,Fat weight,"[3]; perirenal and epididymal fat, Msol: Monascinol 0.31 mg/kg BW/day (adult 3 mg/day), tube-fed 8 weeks, high-fat diet SD rats, mean±SD",17.95 3.55^b g
same,hepatic TC levels compared with HF group,[4]; [13],effective in reducing
same,Liver TC,[4]; [11],5.05 ± 0.54^a mg/g
same,Liver TG,[4]; [11],14.40 ± 1.57^a mg/g
same,liver TG content compared with HF group,[4]; [12],significantly different from the HF group
same,Feces TC,[5]; [11],46.22 ± 4.72^c mg/g
same,Feces TG,[5]; [11],61.27 4.80^cd mg/g
same,accumulation of TG in the body (from fecal TG content),[5]; [14],effective in reducing
same,excretion of TC (feces),[5]; [14],significantly promoted
same,Weight 8 week,[6]; [11],512.1 ± 31.1^a g
same,Weight gain,[6]; [11],220.8 ± 38.8^a g
same,Weight before Sacrifice,"[6]; after fasting, Msol: Monascinol 0.31 mg/kg BW/day (adult 3 mg/day), tube-fed 8 weeks, high-fat diet SD rats, mean±SD",488.5 ± 31.7^a g
same,weight gain compared with HF group,[6]; [12],significantly reduced
same,liver-to-body-weight ratio compared with HF group,[7]; [13],reduction
same,Liver Weight/Body Weight,[7]; [11],3.28 ± 0.37^b %
same,Liver weight,[7]; [11],16.84 2.31^b g
same,liver weight compared with HF group,[7]; [12],significant decrease
